This is an account of results in US20060122165A1, “Crystalline cefdinir” (priority 2004, published 2006).

The nature of series [1]: conversion of crystalline form B into form C on exposure to humidity or aqueous medium. It is filed as physicochemical. An excerpt:
In another aspect of the invention, crystalline form C of cefdinir can be obtained by conversion of the crystalline form B of cefdinir, obtainable as described in US 2003/0204082 in Example 1, into crystalline form C of cefdinir. Cefdinir form B is in the form of a hydrate.
The equilibrating procedure of step a′) is preferably performed at a relative humidity of about 63% to about 75% , more preferably of about 65% to about 70%, such as of at 65% to 70%. Said equilibration may be performed in a gaseous atmosphere being e.g. air or nitrogen, preferably air having the above mentioned relative humidity. Above about 63% relative humidity, for example cefdinir form B crystals obtainable as described above convert to form C crystals. Form C crystals—once formed—are stable above a relative humidity of at least 45%.

Series [2] is described as follows: stability of crystalline form at environmental relative humidity. Format: physicochemical. The note with it: form maintained as trihydrate.

For `C=CC1=C(C(=O)O)N2C(=O)C(NC(=O)C(=NO)c3csc(N)n3)[C@H]2SC1` (stereo partly shown) [crystalline form B of cefdinir, 7-[2-(2-aminothiazol-4-yl)-2-hydroxyiminoacetamido]-3-vinyl-3-cephem-4-carboxylic acid], in series [1] (equilibration in gaseous atmosphere (air or nitrogen)), the “relative humidity above which crystals convert to form C” value is reported as “Above 63%”. The “time for conversion into crystalline form C” value in series [1] (exposure of pure crystalline form B to a relative humidity of at least about 65%) was “within minutes”; in series [1] (exposure of pure form B crystals to an aqueous suspending medium, preferably water), “within seconds”.
Take `C=CC1=C(C(=O)O)N2C(=O)C(NC(=O)C(=NO)c3csc(N)n3)[C@H]2SC1.O.O.O` (stereo partly shown) [crystalline form C of cefdinir, 7-[2-(2-aminothiazol-4-yl)-2-hydroxyiminoacetamido]-3-vinyl-3-cephem-4-carboxylic acid trihydrate]: in series [2], the “relative humidity of environmental conditions at which the crystal form is stable” value is on record as “at least 45%”.
